Legend:
[1] = system: mouse neuronal cell line N1E-115; assay: MTT cytotoxicity assay on N1E-115; format: cell-based; settings: FIG. 5b
Excerpt: (§1) MTT assay was used to check for the toxicity of the selected primary hAChE inhibitors. Since only metabolic active cell can cleave the tetrazolium salt MTT and form a formazen dye. The O.D. measure at 540 nm is directly proportional to the number of viable cell.

[2] = target: T1, Human acetylcholinesterase (hAChE) (Homo sapiens, UniProt P22303); assay: Ellman assay, human acetylcholinesterase inhibition; format: biochemical; settings: for effect on AChE inhibition (in words): selected active components, FIG. 2 and 3
T1 construct: purchased Sigma
Protocol: The screening for modest cholinesterease inhibitors by the method of Ellman assay was used. Human acetylcholinesterase (hAChE) in buffer was added to the test chemicals/TCM extract followed by the addition of acetylthiocholine (ATCI) substrates and Ellman's reagent, (5′5-dithio-bis-(2-nitrobenzoate), DTNB). The AChE inhibitory activity was monitored by the release of thiocholine which was then reacted with DTNB to form a bright yellow product. The optical densities of the color product formed was spectrophotometrically determined.
After 10 minutes, the optical densities were measured in a 96-well plate reader at 415 nm. Optical densities was inversely proportional to the inhibiting activity.
Selected active components were dissolved in 50% DMSO. 100% DMSO was not recommended in this assay as it lowers the enzyme vitality.
Ellman assay was performed on the selected active components, protocatechualdehyde (MW=138.12), cryptotanshinone (MW=296), salvianic acid B (MW=718) and dihydrotanshinone I (MW=278). 10-fold dilution was made with highest concentration at 40 μM. (FIG. 2)
10-fold dilution was made with the highest concentration at 80 μM. (FIG. 3)

Gram positive bacteria = settings: broad range of Gram positive bacteria; cited from earlier work
[3] = target: T2, butrylcholinesterase (hBChE) (Homo sapiens, UniProt P06276); assay: Ellman assay with butrylcholinesterase (specificity); format: biochemical; settings: hAChE run in parallel; FIGS. 4a and 4b
T2 construct: purchased Sigma
Excerpt: In order to test the specificity of cryptotanshinone and dihydrotanshinone I towards hAChE, butrylcholinesterase (hBChE) instead of hAChE was used in Ellman assay. hBChE is concentrated in […] and it is named as pseudoesterase as it has very homology as hAChE.
Ellman assay was preformed as mentioned, except that hBChE (commercially obtained from Sigma.) was used. Ellman assay using hAChE was also preformed in parallel for comparison.

[4] = system: neuronal cell line-SHSY5Y; assay: MTT cytotoxicity assay on SHSY5Y; format: cell-based; settings: FIG. 5a
Excerpt: as §1

[5] = system: interleukin-12 (IL-12) and interferon-gamma (IFN-gamma) production; settings: compared with cryptotanshinone and tanshinone I; cited from earlier work

T1 sequence (P22303 32-614): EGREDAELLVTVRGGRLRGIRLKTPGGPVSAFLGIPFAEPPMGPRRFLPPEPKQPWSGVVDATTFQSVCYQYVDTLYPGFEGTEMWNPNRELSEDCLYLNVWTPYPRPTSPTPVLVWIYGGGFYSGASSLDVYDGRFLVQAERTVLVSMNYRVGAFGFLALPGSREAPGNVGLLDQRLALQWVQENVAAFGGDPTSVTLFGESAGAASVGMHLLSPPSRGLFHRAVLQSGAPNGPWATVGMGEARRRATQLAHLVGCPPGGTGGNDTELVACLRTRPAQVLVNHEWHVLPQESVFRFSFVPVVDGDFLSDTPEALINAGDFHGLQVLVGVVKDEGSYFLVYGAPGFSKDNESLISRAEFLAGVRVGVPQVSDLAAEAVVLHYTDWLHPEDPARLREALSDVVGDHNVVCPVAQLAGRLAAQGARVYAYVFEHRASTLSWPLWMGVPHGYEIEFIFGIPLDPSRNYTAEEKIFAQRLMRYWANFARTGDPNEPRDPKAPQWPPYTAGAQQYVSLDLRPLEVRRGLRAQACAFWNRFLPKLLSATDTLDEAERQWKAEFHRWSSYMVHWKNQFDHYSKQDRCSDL
T2 sequence (P06276 29-602): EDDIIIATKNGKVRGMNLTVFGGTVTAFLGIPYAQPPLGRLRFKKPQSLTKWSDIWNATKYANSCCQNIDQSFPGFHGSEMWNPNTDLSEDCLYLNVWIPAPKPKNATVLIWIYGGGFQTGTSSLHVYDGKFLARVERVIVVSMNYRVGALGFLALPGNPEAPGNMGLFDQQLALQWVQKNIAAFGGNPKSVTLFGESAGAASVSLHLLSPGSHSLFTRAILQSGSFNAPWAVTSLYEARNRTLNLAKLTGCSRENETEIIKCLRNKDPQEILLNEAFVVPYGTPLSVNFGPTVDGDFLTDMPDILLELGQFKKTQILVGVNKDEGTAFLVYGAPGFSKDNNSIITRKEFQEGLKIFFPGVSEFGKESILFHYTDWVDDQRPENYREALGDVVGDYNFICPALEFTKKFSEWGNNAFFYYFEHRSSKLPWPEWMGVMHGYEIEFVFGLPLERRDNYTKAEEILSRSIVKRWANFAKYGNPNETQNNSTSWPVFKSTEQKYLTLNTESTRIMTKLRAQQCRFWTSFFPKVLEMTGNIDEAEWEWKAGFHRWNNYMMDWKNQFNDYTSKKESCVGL

| SMILES | IC50 [2] | antibacterial activity (Gram positive bacteria) | selectivity for AChE versus BChE [3] | MTT cytotoxicity ([1]; N1E-115, 1 μM) | MTT cytotoxicity ([4]; 1 μM) | effect on AChE inhibition (in words) [2] | also measured |
| --- | --- | --- | --- | --- | --- | --- | --- |
| C[C@H]1COC2=C1C(=O)C(=O)c1c2ccc2c1CCCC2(C)C [cryptotanshinone] | 5 to 8 µM | antibacterial activity | higher selectivity for AChE than BChE |  |  |  | MTT cytotoxicity ([1]; N1E-115, 1-50 μM): No significant cytotoxicity; MTT cytotoxicity ([4]; 1-50 μM): No significant cytotoxicity |
| Cc1cccc2c3c(ccc12)C1=C(C(=O)C3=O)[C@@H](C)CO1 [dihydrotanshinone I] | 0.5 to 0.8 µM | antibacterial activity | higher selectivity for AChE than BChE | No significant cytotoxicity | No significant cytotoxicity |  | inhibition of IL-12 and IFN-gamma production [5]: effectively inhibit |
| O=Cc1ccc(O)c(O)c1 [protocatechualdehyde, reference compound] |  |  |  |  |  | little effect |  |
| O=C(C=Cc1ccc(O)c2c1C(C(=O)OC(Cc1ccc(O)c(O)c1)C(=O)O)C(c1ccc(O)c(O)c1)O2)OC(Cc1ccc(O)c(O)c1)C(=O)O (centres unmarked) [salvianic acid B, reference compound] |  |  |  |  |  | little effect |  |
| Cc1coc2c1C(=O)C(=O)c1c-2ccc2c1CCCC2(C)C [tanshinone IIA, reference compound] |  |  |  |  |  | little effect |  |
| Cc1coc2c1C(=O)C(=O)c1c-2ccc2c(C)cccc12 [tanshinone I] | ~70 µM |  |  | No significant cytotoxicity | No significant cytotoxicity |  |  |
